This note sets out measurements from patent US11464770B2, “Anticancer pharmaceutical composition” (NATIONAL CANCER CENTER, priority 2016, dated 2022).

The assay deals with breast cancer cell lines (e.g. MDA-MB-231, SK-BR-3, MDA-MB-468, HCC1954). As to the kind of experiment: Cell based assay, cell viability (CellTiter-Glo), breast cancer cell lines. An outline of the steps:
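Plated cells (24 h) → compound to 0–2 μM final → 72 h → CellTiter-Glo ATP luminescence.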

[1] abbreviates: Breast cancer cell line MDA-MB-231-L/DOX, 72 hours, CellTiter-Glo, read-out: IC50, MDA-MB-231-L/DOX.
[2] abbreviates: Homo sapiens, Breast cancer cell line BT-20, 72 hours, CellTiter-Glo, read-out: IC50, BT-20.
The mark [3] stands for this setting: Homo sapiens, Breast cancer cell line HCC1395, 72 hours, CellTiter-Glo, read-out: IC50, HCC1395.
Where [4] appears, read: Homo sapiens, Breast cancer cell line HCC1954, 72 hours, CellTiter-Glo, read-out: IC50, HCC1954.
Setting [5] is: Homo sapiens, Breast cancer cell line JIMT-1, 72 hours, CellTiter-Glo, read-out: IC50, JIMT-1.
[6] abbreviates: Homo sapiens, Breast cancer cell line MCF7, 72 hours, CellTiter-Glo, read-out: IC50, MCF7.
[7] abbreviates: Homo sapiens, Breast cancer cell line MDA-MB-231, 72 hours, CellTiter-Glo, read-out: IC50, MDA-MB-231.
Where [8] appears, read: Homo sapiens, Breast cancer cell line MDA-MB-468, 72 hours, CellTiter-Glo, read-out: IC50, MDA-MB-468.
[9] abbreviates: Homo sapiens, Breast cancer cell line SK-BR-3, 72 hours, CellTiter-Glo, read-out: IC50, SK-BR-3.
Setting [10] is: Homo sapiens, BT-20 cells, 72 hours treatment, CellTiter-Glo cell viability, read-out: IC50, Breast cancer cell line BT-20.
The mark [11] stands for this setting: Homo sapiens, HCC1395 cells, 72 hours treatment, CellTiter-Glo cell viability, read-out: IC50, Breast cancer cell line HCC1395.
Setting [12] is: Homo sapiens, HCC1954 cells, 72 hours treatment, CellTiter-Glo cell viability, read-out: IC50, Breast cancer cell line HCC1954.
The mark [13] stands for this setting: Homo sapiens, JIMT-1 cells, 72 hours treatment, CellTiter-Glo cell viability, read-out: IC50, Breast cancer cell line JIMT-1.
Where [14] appears, read: Homo sapiens, MCF7 cells, 72 hours treatment, CellTiter-Glo cell viability, read-out: IC50, Breast cancer cell line MCF7.
Where [15] appears, read: Homo sapiens, MDA-MB-231 cells, 72 hours treatment, CellTiter-Glo cell viability, read-out: IC50, Breast cancer cell line MDA-MB-231.
Setting [16] is: Homo sapiens, MDA-MB-468 cells, 72 hours treatment, CellTiter-Glo cell viability, read-out: IC50, Breast cancer cell line MDA-MB-468.
[17] abbreviates: Homo sapiens, SK-BR-3 cells, 72 hours treatment, CellTiter-Glo cell viability, read-out: IC50, Breast cancer cell line SK-BR-3.
Where [18] appears, read: MDA-MB-231-L/DOX cells, 72 hours treatment, CellTiter-Glo cell viability, read-out: IC50, Breast cancer cell line MDA-MB-231-L/DOX.

Each structure is given as a SMILES string. pIC50: −log10 of the molar value. Where two headings read alike, the source gives them in different places. Where only a bound is given, the exact number is not on record here.

On to `CC(=O)c1c([S+]([O-])Cc2c(F)cccc2Cl)[nH]c2c(Br)ccc(Cl)c2c1=O` (stereo not drawn) [Compound 74, 3-acetyl-8-bromo-5-chloro-2-((2-chloro-6-fluorobenzyl)sulfinyl)quinolin-4(1H)-one], for which the pIC50 by setting is: under setting [1], under 5.70; under setting [2], under 5.70; under setting [3], under 5.00; under setting [4], under 5.70; under setting [5], under 5.00; under setting [6], under 5.70. The pIC50 runs as follows: under setting [7], under 5.70; under setting [8], under 5.70; under setting [9], 5.97.

Regarding `COc1cc(S(F)(F)(F)(F)F)ccc1C[S+]([O-])c1[nH]c2c(Br)ccc(Cl)c2c(=O)c1C(C)=O` (stereo not drawn) [Compound 75, 3-acetyl-8-bromo-5-chloro-2-((2-methoxy-4-(pentafluoro--sulfanyl)benzyl)sulfinyl)quinolin-4(1H)-one], the pIC50 is, setting by setting: under setting [1], under 5.70; under setting [2], under 5.70; under setting [3], under 5.70; under setting [4], under 5.70; under setting [5], under 5.70; under setting [6], under 5.70. The pIC50 was 5.94 under setting [7], under 5.70 under setting [8] and 5.77 under setting [9].

With `CC(=O)c1c([S+]([O-])Cc2cc(F)cc(S(F)(F)(F)(F)F)c2)[nH]c2c(Br)ccc(Cl)c2c1=O` (stereo not drawn) [Compound 76, 3-acetyl-8-bromo-5-chloro-2-((3-fluoro-5-(pentafluoro--sulfanyl)benzyl)sulfinyl)quinolin-4(1H)-one], the pIC50 by setting is: under setting [1], under 5.70; under setting [2], under 5.70; under setting [3], under 5.00; under setting [4], under 5.70; under setting [5], under 5.00; under setting [6], under 5.70. The pIC50 runs as follows: under setting [7], under 5.70; under setting [8], under 5.70; under setting [9], 5.76.

As to `CC(=O)c1c([S+]([O-])Cc2c(F)c(F)c(F)c(F)c2F)[nH]c2c(Br)ccc(Cl)c2c1=O` (stereo not drawn) [Compound 78, 3-acetyl-8-bromo-5-chloro-2-(((perfluorophenyl)methyl)sulfinyl)quinolin-4(1H)-one], the pIC50 under setting [1] is under 5.70; the pIC50 under setting [2] is under 5.70; the pIC50 under setting [3] is under 5.00; the pIC50 under setting [4] is under 5.70; the pIC50 under setting [5] is under 5.00; the pIC50 under setting [6] was under 5.70. In addition, the pIC50 was under 5.70 under setting [7], under 5.70 under setting [8] and 5.92 under setting [9].

`CC(=O)c1c([S+]([O-])Cc2ccc(I)cc2)[nH]c2c(Cl)ccc(Cl)c2c1=O` (stereo not drawn) [Compound 83, 3-acetyl-5,8-dichloro-2-((4-iodobenzyl)sulfinyl)quinolin-4(1H)-one]: the pIC50 is under 5.70 under setting [10]; under 5.00 under setting [11]; 5.84 under setting [12]; under 5.00 under setting [13]; under 5.70 under setting [14]; 5.71 under setting [15]. Moreover, the pIC50 under setting [16] was 5.75, the pIC50 under setting [17] was 5.92 and the pIC50 under setting [18] was under 5.70.

As for `CC(=O)c1c([S+]([O-])Cc2cccnc2)[nH]c2c(Br)ccc(Cl)c2c1=O` (stereo not drawn) [Compound 84, 3-acetyl-8-bromo-5-chloro-2-((pyridin-3-ylmethyl)sulfinyl)quinolin-4(1H)-one], the pIC50 was under 5.70 under setting [10]; under 5.00 under setting [11]; 5.95 under setting [12]; under 5.00 under setting [13]; under 5.70 under setting [14]; 5.80 under setting [15]. Moreover, the pIC50 runs as follows: under setting [16], 5.98; under setting [17], 6.12; under setting [18], under 5.70.

Regarding `Cc1cc(C[S+]([O-])c2[nH]c3c(Cl)ccc(Cl)c3c(=O)c2C(=O)C(C)C)no1` (stereo not drawn) [Compound 86, 5,8-dichloro-3-isobutyryl-2-(((5-methylisoxazol-3-yl)methyl)sulfinyl)quinolin-4(1H)-one], the pIC50 is under 5.70 under setting [10]; under 5.00 under setting [11]; 6.30 under setting [12]; under 5.00 under setting [13]; 5.83 under setting [14]; 5.80 under setting [15]. Moreover, the pIC50 was 6.24 under setting [16], 6.24 under setting [17] and 5.95 under setting [18].

`COC(=O)c1ccc(C[S+]([O-])c2[nH]c3c(Cl)ccc(Cl)c3c(=O)c2C(C)=O)o1` (stereo not drawn) [Compound 89, methyl 5-(((3-acetyl-5,8-dichloro-4-oxo-1,4-dihydroquinolin-2-yl)sulfinyl)methyl)furan-2-carboxylate]: the pIC50 is, setting by setting: under setting [10], under 5.70; under setting [11], under 5.00; under setting [12], 5.87; under setting [13], under 5.00; under setting [14], under 5.70; under setting [15], under 5.70. The pIC50 under setting [16] is 5.87, the pIC50 under setting [17] is 5.87 and the pIC50 under setting [18] was under 5.70.

For the compound `Cc1cc(C[S+]([O-])c2[nH]c3c(Br)ccc(Cl)c3c(=O)c2C(=O)C(C)C)no1` (stereo not drawn) [Compound 95, 8-bromo-5-chloro-3-isobutyryl-2-(((5-methylisoxazol-3-yl)methyl)sulfinyl)quinolin-4(1H)-one], the pIC50 runs as follows: under setting [10], 5.73; under setting [11], under 5.00; under setting [12], 6.32; under setting [13], under 5.70; under setting [14], 5.89; under setting [15], 5.85. The pIC50 reads like this: under setting [16], 6.33; under setting [17], 6.33; under setting [18], 5.99.
